Tests used:
Enterobacter sakazakii = assay: ompA-PCR (469 bp) of EMA-treated Enterobacter sakazakii, band intensity of final amplified product; format: cell-based
Experimental: (§1) A Gram-negative bacterium, Enterobacter sakazakii (Enterobacter sakazakii ATCC […]; hereinafter, abbreviated as “sakazakii” in some cases), was cultured in brain-heart infusion (BHI) broth at 37° C., and 5 ml of the culture medium in the logarithmic growth phase was centrifuged at 8,000×g for 15 minutes at 4° C., followed by removal of the supernatant. 5 ml of physiological saline was added to the bacterial cells, and the whole was vigorously stirred and diluted 10-fold. Thus, a live cell suspension was prepared. […] The live cell suspension (1 ml) was placed in a 1.5-ml microtube, and the microtube was immersed in boiling water for 2 minutes and immediately cooled with ice water, to thereby prepare a injured cell suspension. The cells in the suspension probably include small numbers of live cells and dead cells but include mainly injured cells. Therefore, the cells are simply referred to as “injured cells”. Note that the method of the present invention is originally intended to detect live cells, and microorganism cells distinguished from live cells may be injured cells or dead cells. Ethidium monoazide (EMA) was added to the live cell suspension and injured cell suspension of sakazakii prepared above at a final concentration of 0, 10, 25, or 100 μg/ml, and the suspensions were allowed to stand under shading at 4° C. for 10 minutes. The suspensions were placed on ice and irradiated for 5 minutes with a 500-W visible light (FLOOD PRF: 100 […] ELECTRIC CO., LTD., wavelength: 500 to 700 nm) at a distance of 20 cm from the suspensions. Then, the suspensions were centrifuged at 15,000×g for 10 minutes at 4° C., and the supernatants were removed. An equal volume of physiological saline was added thereto, and the suspensions were stirred and centrifuged while cooling at 15,000×g for 10 minutes at 4° C., followed by removal of the supernatants. An equal volume of brain-heart infusion (BHI) broth was added thereto, and the suspensions were incubated at 37° C. for 2 hours. In the first EMA treatment, EMA was not added again to the live cell and injured cell suspensions having an EMA concentration of 0, while EMA was added again at a final concentration of 10 μg/ml to the live cell and injured cell suspensions having an EMA concentration of 10, 25, or 100 μg/ml. The suspensions were allowed to stand under shading at 4° C. for 10 minutes, placed on ice, and irradiated for 5 minutes with a 500-W visible light at a distance of 20 cm from the suspensions. Ethidium monoazide (EMA) was added to the live cell and injured cell suspensions of sakazakii prepared in the section “1.” at a final concentration of 0, 10, 25 or 100 μg/ml, and the suspensions were allowed to stand under shading at 4° C. for 10 minutes, placed on ice, and irradiated for 5 minutes with a 500-W visible light (FLOOD PRF: […] ELECTRIC CO., LTD., wavelength: 500 to 700 nm) at a distance of 20 cm from the suspensions. Microtubes including one of the live cell and injured cell suspensions of sakazakii treated in the sections 2-1) and 2-2) above were centrifuged at 15,000×g for 10 minutes at 4° C. The supernatants were removed, and 1 ml of physiological saline was added thereto. The resultant suspensions were stirred vigorously and centrifuged while cooling in the same way as above (washing treatment). One more washing treatment was performed in the same way, and the same amount of sterile water as the initial amount was added to the pellets, followed by vigorous stirring. PCR Master Mix (total volume: 25.25 μl) was prepared using Direct Buffer Mix (G&g SCIENCE CO., LTD., Yokohama, Kanagawa) capable of sequentially and automatically performing elution of chromosomal DNA from a bacterium and PCR reactions. […]

[1] = tested on: Enterobacter sakazakii ATCC 6538P; assay: as above; format: cell-based; conditions: multi-step treatment (EMA 10 μg/ml-incubation-EMA 10 μg/ml)
Experimental: as §1

## CC[n+]1c(-c2ccccc2)c2cc(N=[N+]=[N-])ccc2c2ccc(N)cc21 [EMA, ethidium monoazide]
Enterobacter sakazakii; multi-step: EMA 10 μg/ml + Incubation (37° C., 2 hr) + EMA 10 μg/ml, Injured cell
  Band Intensity: 0.000
Enterobacter sakazakii; multi-step: EMA 10 μg/ml + Incubation (37° C., 2 hr) + EMA 10 μg/ml, Live cell
  Band Intensity: 1.546
Enterobacter sakazakii; single-step EMA 10 μg/ml, Injured cell
  Band Intensity: 0.502
Enterobacter sakazakii; single-step EMA 10 μg/ml, Live cell
  Band Intensity: 1.690
[1]; injured cells
  bands of ompA gene amplified products (electrophoresis, FIG. 2): no band was detected
[1]; live cells
  bands of ompA gene amplified products (electrophoresis, FIG. 2): bands were clearly detected

— patent US8221975B2, “Method for detection of microorganism” (Morinaga Milk Industry Co., Ltd., priority 2007, dated 2012)
